Experiments:
rat [1] = details: Subchronic oral toxicity in rodents, fischer, Feed, dose end: 13 week, group: systemic, systemic / hematology / erythrocyte (rbc) count differential / erythrocyte (rbc) + systemic / hematology / hematocrit (hct) / hematocrit (…
dog [2] = details: Sub-acute repeat dose toxicity, beagle, Injection, Intravenous, dose end: 1 month, group: systemic
rat [3] = details: Subchronic oral toxicity in rodents, fischer, Feed, dose end: 90 day
mouse [4] = details: Carcinogenicity, cd1, Oral, Feed, dose end: 78 week, group: systemic
mouse [5] = details: Subchronic oral toxicity in rodents, b6c3f1, Feed, dose end: 13 week, group: systemic
rat [6] = details: Subchronic oral toxicity in rodents, fischer, Feed, dose end: 13 week, group: systemic
mouse [7] = details: Carcinogenicity; b6c3f1; Oral; Feed; dose end: 2 year; group: systemic; systemic / in life observation / body weight / body weight
rat [8] = details: Carcinogenicity; fischer; Oral; Feed; dose end: 2 year; group: systemic; systemic / pathology microscopic / skin / keratoacanthoma
rat [9] = details: Subchronic oral toxicity in rodents, other, Feed, dose end: 15 week, group: cholinesterase
dog [10] = details: Subchronic oral toxicity in nonrodent, beagle, Feed, dose end: 13 week
[11] = systemic / clinical chemistry / [other] / [other] + systemic / hematology / erythrocyte (rbc) count differential / erythrocyte (rbc) + …
[12] = systemic / urinalysis / potassium / potassium + systemic / urinalysis / sodium / sodium
[13] = group: cholinesterase, cholinesterase / cholinesterase / cholinesterase / brain cholinesterase (che)
[14] = group: cholinesterase, cholinesterase / cholinesterase / cholinesterase / brain cholinesterase (che) + cholinesterase / cholinesterase / cholinesterase / …
[15] = group: systemic, systemic / hematology / erythrocyte (rbc) count differential / erythrocyte (rbc) + systemic / hematology / hematocrit (hct) / hematocrit (…
[16] = group: systemic, systemic / hematology / mean corpuscular hemoglobin concentration (mchc) / mean corpuscular hemoglobin concentration (mchc)
[17] = systemic / in life observation / body weight / body weight gain + systemic / in life observation / food consumption / food efficiency + …
[18] = systemic / in life observation / body weight / body weight
[19] = systemic / in life observation / body weight / body weight + systemic / in life observation / mortality / mortality + systemic / pathology …
[20] = systemic / in life observation / body weight / body weight + systemic / in life observation / food consumption / food consumption + systemic…
[21] = cholinesterase / cholinesterase / cholinesterase / erythrocyte cholinesterase (che)
[22] = cholinesterase / cholinesterase / cholinesterase / erythrocyte cholinesterase (che) + cholinesterase / cholinesterase / cholinesterase / …
[23] = group: cholinesterase, cholinesterase / cholinesterase / cholinesterase / erythrocyte cholinesterase (che) + cholinesterase / cholinesterase / cholinesterase / …
[24] = group: systemic, systemic / in life observation / clinical signs / [other]

For `O=C(O)c1cc(O)c(O)c(O)c1` [Gallic acid], the LEL (rat [1]) was 300 mg/kg/day, the LOAEL (rat [1]) was 300 mg/kg/day and the NEL (rat [1]) was 100 mg/kg/day. It also gave an NOAEL (rat [1]) of 100 mg/kg/day.

For `CN(C)c1ccc(O)c2c1C[C@H]1C[C@H]3[C@H](N(C)C)C(=O)C(C(N)=O)=C(O)[C@@]3(O)C(=O)C1=C2O` [Minocycline], the LOAEL (dog [2]; [11]) was > 40 mg/kg/day, the NOAEL (dog [2]; [11]) was ≥ 40 mg/kg/day and the LEL (dog [2]; [12]) was 5 mg/kg/day. The NEL (dog [2]; [12]) was < 5 mg/kg/day.

`COC(=O)Nc1cccc(OC(=O)Nc2cccc(C)c2)c1` [Phenmedipham] was tested, and the LEL (rat [3]; [13]) was 3.5 mg/kg/day, the NEL (rat [3]; [13]) was < 3.5 mg/kg/day and the LOAEL (rat [3]; [14]) was > 366 mg/kg/day. For the same molecule, the NOAEL (rat [3]; [14]) was ≥ 366 mg/kg/day, the LOAEL (rat [3]; [15]) was 35.4 mg/kg/day and the NOAEL (rat [3]; [15]) was 3.5 mg/kg/day. The LEL (rat [3]; [16]) was 3.5 mg/kg/day, the NEL (rat [3]; [16]) was < 3.5 mg/kg/day and the LOAEL (mouse [4]; systemic / in life observation / body weight / body weight gain + systemic / in life observation / food consumption / food efficiency) was 1070 mg/kg/day. For the same molecule, the NEL (mouse [4]; [17]) was 75 mg/kg/day, the NOAEL (mouse [4]; [17]) was 302 mg/kg/day and the LEL (mouse [4]; systemic / pathology gross / spleen / enlarged + systemic / pathology microscopic / adrenal gland / amyloid deposition + systemic / …) was 302 mg/kg/day.

`CCNc1cc2oc3cc(=[NH+]CC)c(C)cc-3c(-c3ccccc3C(=O)OCC)c2cc1C.[Cl-]` [Rhodamine 6G] was tested, and the LEL (mouse [5]; [18]) was 300 mg/kg/day, the NEL (mouse [5]; [18]) was 150 mg/kg/day and the LOAEL (mouse [5]; [19]) was > 1200 mg/kg/day. For the same molecule, the NOAEL (mouse [5]; [19]) was ≥ 1200 mg/kg/day, the LOAEL (rat [6]; [20]) was > 100 mg/kg/day and the NEL (rat [6]; [20]) was 12.5 mg/kg/day. The NOAEL (rat [6]; [20]) was ≥ 100 mg/kg/day, the LEL (rat [6]; systemic / in life observation / body weight / body weight + systemic / pathology microscopic / bone marrow / atrophy) was 25 mg/kg/day and the LEL (mouse [7]) was 125 mg/kg/day. For the same molecule, the LOAEL (mouse [7]) was 125 mg/kg/day, the NEL (mouse [7]) was < 125 mg/kg/day and the NOAEL (mouse [7]) was < 125 mg/kg/day. The LEL (rat [8]) was 10 mg/kg/day, the LOAEL (rat [8]) was > 10 mg/kg/day and the NEL (rat [8]) was 5 mg/kg/day. The NOAEL (rat [8]) was ≥ 10 mg/kg/day.

In the case of `COP(=S)(OC)Oc1ccc(Sc2ccc(OP(=S)(OC)OC)cc2)cc1` [Temephos], the LEL (rat [9]; [21]) is reported as 0.9 mg/kg/day, the LOAEL (rat [9]; [21]) is reported as 0.9 mg/kg/day and the NEL (rat [9]; [22]) is reported as 0.3 mg/kg/day. The NOAEL (rat [9]; [22]) was 0.3 mg/kg/day, the LEL (dog [10]; [23]) was 12.5 mg/kg/day and the LOAEL (dog [10]; [23]) was 12.5 mg/kg/day. For the same molecule, the NEL (dog [10]; [23]) was 0.46 mg/kg/day, the NOAEL (dog [10]; [23]) was 0.46 mg/kg/day and the LEL (dog [10]; [24]) was 12.5 mg/kg/day. For the same molecule, the LOAEL (dog [10]; [24]) was 12.5 mg/kg/day, the NEL (dog [10]; [24]) was 0.46 mg/kg/day and the NOAEL (dog [10]; [24]) was 0.46 mg/kg/day.

From EPA's ToxRefDB 2
